Values quoted from earlier work, collected in patent US20220154222A1, “NOVEL NUCLEIC ACID MODIFIERS” (THE BROAD INSTITUTE, INC., priority 2019, published 2022).

Tested on: Factor VII gene silencing in hepatocytes
Conditions: LNP siRNA systems containing the ionizable cationic lipid; hepatocytes in vivo

Compound | gene silencing potency, rank order of the series
CCCCC/C=C\C/C=C\CCCCCCCCC1(CCCCCCCC/C=C\C/C=C\CCCCC)OCC(CCN(C)C)O1 (stereo not shown) [DLinKC2-DMA, 1,2-dilinoleyl-4-(2-dimethylaminoethyl)-[1,3]-dioxolane] | DLinKC2-DMA>DLinKDMA>DLinDMA>>DLinDAP
CCCCC/C=C\C/C=C\CCCCCCCC(=O)OCC(CN(C)C)OC(=O)CCCCCCC/C=C\C/C=C\CCCCC (stereo not shown) [DLinDAP, 1,2-dilineoyl-3-dimethylammonium-propane] | DLinKC2-DMA>DLinKDMA>DLinDMA>>DLinDAP
1,2-dilinoleyloxy-keto-N,N-dimethyl-3-aminopropane [DLinKDMA] | DLinKC2-DMA>DLinKDMA>DLinDMA>>DLinDAP
CCCCC/C=C\C/C=C\CCCCCCCCOCC(CN(C)C)OCCCCCCCC/C=C\C/C=C\CCCCC (stereo not shown) [DLinDMA, 1,2-dilinoleyloxy-3-N,N-dimethylaminopropane] | DLinKC2-DMA>DLinKDMA>DLinDMA>>DLinDAP
